Source: patent US9765034B2, “5-halogenopyrazole biphenylcarboxamides” (BAYER CROPSCIENCE AG, priority 2012, dated 2017)

Tests used:
physchem = conditions: pH 2.7
Pyrenophora teres = assay: In vivo preventive test on Pyrenophora teres (net blotch on barley); conditions: barley plants, preventive spray, 500 ppm, grading 14 days after contamination
Method: Example: In Vivo Preventive Test on Pyrenophora teres (Net Blotch on Barley) […] Barley plants (“Plaisant” variety), sown in starter cups on a 50/50 peat soil-pozzolana substrate and grown at 22° C., are treated at the 1-leaf stage (10 cm height) by spraying with the active ingredient prepared as described above. Plants, used as controls, are treated with the mixture of acetone/tween/DMSO/water not containing the active material. After 24 hours, the plants are contaminated by spraying the leaves with an aqueous suspension of Pyrenophora teres spores (12 000 spores per ml). The spores are collected from a 12-day-old culture. […] Grading (% of efficacy) is carried out 14 days after the contamination, in comparison with the control plants. Under these conditions, good (at least 70%) or total protection is observed at a dose of 500 ppm with the following compounds: […]

Septoria tritici = assay: In vivo preventive test on Septoria tritici (leaf spot on wheat); conditions: wheat plants, preventive spray, 500 ppm, grading 24 days after contamination
Method: Example: In Vivo Preventive Test on Septoria tritici (Leaf Spot on Wheat) […] Wheat plants (“Scipion” variety), sown in starter cups on a 50/50 peat soil-pozzolana substrate and grown at 22° C., are treated at the 1-leaf stage (10 cm height) by spraying with the active ingredient prepared as described above. Plants, used as controls, are treated with the mixture of acetone/tween/DMSO/water not containing the active material. After 24 hours, the plants are contaminated by spraying the leaves with an aqueous suspension of cryopreserved Septoria tritici spores (500 000 spores per ml). […] Grading (% of efficacy) is carried out 24 days after the contamination, in comparison with the control plants. Under these conditions, good (at least 70%) or total protection is observed at a dose of 500 ppm with the following compounds: […]

Uromyces appendiculatus = assay: In vivo preventive test on Uromyces appendiculatus (bean rust); conditions: bean plants, preventive spray, 500 ppm, grading 11 days after contamination
Method: Example: In Vivo Preventive Test on Uromyces appendiculatus (Bean Rust) […] Bean plants (“Saxa” variety), sown in starter cups on a 50/50 peat soil-pozzolana substrate and grown at 24° C., are treated at the 2-leaf stage (9 cm height) by spraying with the active ingredient prepared as described above. Plants, used as controls, are treated with the mixture of acetone/tween/DMSO/water not containing the active material. After 24 hours, the plants are contaminated by spraying the leaves with an aqueous suspension of Uromyces appendiculatus spores (150 000 spores per ml). […] Grading (% of efficacy) is carried out 11 days after the contamination, in comparison with the control plants. Under these conditions, good (at least 70%) or total protection is observed at a dose of 500 ppm with the following compounds: […]

Pyricularia oryzae = format: in vivo; conditions: rice plants, preventive spray, 500 ppm, grading 6 days after contamination
Sphaerotheca fuliginea = assay: In vivo preventive test on Sphaerotheca fuliginea (powdery mildew on cucurbits); conditions: gherkin plants, preventive spray, 500 ppm, grading 12 days after contamination
Method: Example: In Vivo Preventive Test on Sphaerotheca fuliginea (Powdery Mildew on Cucurbits) […] Gherkin plants (“Vert petit de Paris” variety), sown in starter cups on a 50/50 peat soil-pozzolana substrate and grown at 24° C., are treated at the Z11 cotyledon stage by spraying with the active ingredient prepared as described above. Plants, used as controls, are treated with the mixture of acetone/tween/DMSO/water not containing the active material. After 24 hours, the plants are contaminated by spraying the cotyledons with an aqueous suspension of Sphaerotheca fuliginea spores (100 000 spores per ml). The spores are collected from infected plants. […] Grading (% of efficacy) is carried out 12 days after the contamination, in comparison with the control plants. Under these conditions, good (at least 70%) or total protection is observed at a dose of 500 ppm with the following compounds: […]

Puccinia recondita = assay: In vivo preventive test on Puccinia recondita (brown rust on wheat); conditions: wheat plants, preventive spray, 500 ppm, grading 12 days after contamination
Method: Example: In Vivo Preventive Test on Puccinia recondita (Brown Rust on Wheat) […] Wheat plants (“Scipion” variety), sown in starter cups on a 50/50 peat soil-pozzolana substrate and grown at 22° C., are treated at the 1-leaf stage (10 cm height) by spraying with the active ingredient prepared as described above. Plants, used as controls, are treated with the mixture of acetone/tween/DMSO/water not containing the active material. After 24 hours, the plants are contaminated by spraying the leaves with an aqueous suspension of Puccinia […] spores (100 000 spores per ml). […] Grading (% of efficacy) is carried out 12 days after the contamination, in comparison with the control plants. Under these conditions, good (at least 70%) or total protection is observed at a dose of 500 ppm with the following compounds: […]

[1] = system: Fusarium nivale (var. majus); assay: In vivo Fusarium nivale (var. majus) test (wheat)/preventive; conditions: preventive, 500 ppm of active ingredient, evaluated 5 days after inoculation
Method: (§1) Example: In Vivo Fusarium nivale (Var. Majus)-Test (Wheat)/Preventive Solvent: 49 parts by weight of N,N-dimethylacetamide Emulsifier: 1 part by weight of alkylaryl polyglycol ether To produce a suitable preparation of active compound, 1 part by weight of active compound or active compound combination is mixed with the stated amounts of solvent and emulsifier, and the concentrate is diluted with water to the desired concentration. To test for preventive activity, young plants are sprayed with the preparation of active compound or active compound combination at the stated rate of application. After the spray coating has been dried, the plants are slightly injured by using a sandblast and afterwards to they are sprayed with a conidia suspension of Fusarium nivale (var. majus).

[2] = logP by HPLC on reversed phase columns (EEC directive 79/831 Annex V.A8); conditions: method [a]: LC-MS at pH 2.7, 0.1% formic acid in water / acetonitrile gradient 10% to 95%
Phytophthora infestans = format: in vivo; conditions: tomato plants, preventive spray, 500 ppm, grading 5 days after contamination
Phakopsora pachyrhizi = assay: In vivo Phakopsora test (soybeans)/preventive; conditions: preventive, 100 ppm of active ingredient, evaluated 7 days after inoculation
Method: Example: In Vivo Phakopsora Test (Soybeans)/Preventive Solvent: 24.5 parts by weight of acetone • 24.5 parts by weight of dimethylacetamide Emulsifier: • 1 part by weight of alkylaryl polyglycol ether To produce a suitable preparation of active compound, 1 part by weight of active compound is mixed with the stated amounts of solvent and emulsifier, and the concentrate is diluted with water to the desired concentration. To test for preventive activity, young plants are sprayed with the preparation of active compound at the stated rate of application. After the spray coating has dried on, the plants are inoculated with an aqueous to spore suspension of the causal agent of soybean rust (Phakopsora pachyrhizi) and stay for 24 h without light in an incubation cabinet at approximately 24° C. and a relative atmospheric humidity of 95%.

Botrytis cinerea = assay: In vivo preventive test on Botrytis cinerea (grey mould); conditions: gherkin plants, preventive spray, 500 ppm, grading 4 to 5 days after contamination
Method: Example: In Vivo Preventive Test on Botrytis cinerea (Grey Mould) […] Gherkin plants (“Vert petit de Paris” variety), sown in starter cups on a 50/50 peat soil-pozzolana substrate and grown at 24° C., are treated at the Z11 cotyledon stage by spraying with the active ingredient prepared as described above. Plants, used as controls, are treated with the mixture of acetone/tween/DMSO/water not containing the active material. After 24 hours, the plants are contaminated by spraying the cotyledons with an aqueous suspension of cryopreserved Botrytis cinerea spores (50 000 spores per ml). The spores are suspended in a nutrient solution composed of 10 g/L of PDB, 50 g/L of D-Fructose, 2 g/L of NH4NO3 and 1 g/L of KH2PO4. […] Grading (% of efficacy) is carried out 4 to 5 days after the contamination, in comparison with the control plants. Under these conditions, good (at least 70%) or total protection is observed at a dose of 500 ppm with the following compounds: […]

[3] = system: Blumeria graminis fsp. hordei; assay: In vivo Blumeria test (barley)/preventive; conditions: preventive, 500 ppm of active ingredient, evaluated 7 days after inoculation
Method: as §1, with “Blumeria Test (Barley)/Preventive” for “Fusarium nivale (Var. Majus)-Test (Wheat)/Preventive”, “dusted” for “slightly injured by using a sandblast and afterwards to they are sprayed”, “spores” for “a conidia suspension”, “Blumeria graminis fsp. hordei.” for “Fusarium nivale (var. majus).”

Leptosphaeria nodorum = assay: In vivo Leptosphaeria nodorum test (wheat)/preventive; conditions: preventive, 500 ppm of active ingredient, evaluated 8 days after inoculation
Method: as §1, with “Leptosphaeria nodorum Test” for “Fusarium nivale (Var. Majus)-Test”, “are” for “are slightly injured by using a sandblast and afterwards to they are”, “spore” for “conidia”, “Leptosphaeria nodorum.” for “Fusarium nivale (var. majus).”

Row | SMILES | chromatographic logP (physchem) | Eff. % (Pyrenophora teres) [%] | Eff. % (Septoria tritici) [%] | Eff. % (Uromyces appendiculatus) [%] | Eff. % (Pyricularia oryzae) [%] | Eff. % (Sphaerotheca fuliginea) [%] | Eff. % (Puccinia recondita) [%] | Eff. % [1] [%] | logP [2] | Eff. % (Phytophthora infestans) [%] | Eff. % (Phakopsora pachyrhizi) [%] | Eff. % (Botrytis cinerea) [%] | Eff. % [3] [%] | Eff. % (Leptosphaeria nodorum) [%]
1 | CON=Cc1ccc(-c2ccccc2NC(=O)c2c(C(F)F)nn(C)c2F)cc1 [Example 9, 5-fluoro-3-(difluoromethyl)-N-{4′-[(methoxyimino)methyl]biphenyl-2-yl}-1-methyl-1H-pyrazole-4-carboxamide] | 3.46 | 79 | 80 | 100 | 80 | 100 | 100 | – | – | – | – | – | – | –
2 | C#CCON=Cc1ccc(-c2ccccc2NC(=O)c2c(C(F)F)nn(C)c2F)cc1 [Example 4] | – | 100 | 95 | 100 | 80 | 100 | 100 | 80 | 3.55[a] | 100 | – | – | – | –
3 | CCON=C(c1ccc(-c2ccccc2NC(=O)c2c(C(F)F)nn(C)c2F)cc1)C(F)(F)F [Example 29] | – | 97 | – | 100 | 83 | 100 | 97 | 86 | 4.46[a] | – | 91 | – | – | –
4 | CCON=Cc1ccc(-c2ccccc2NC(=O)c2c(C(F)F)nn(C)c2F)cc1 [Example 7] | – | 100 | – | 100 | 90 | 100 | 94 | – | 3.87[a] | – | – | 85 | 100 | 90
5 | CON=Cc1ccc(-c2ccccc2NC(=O)c2c(C(F)F)nn(C)c2Cl)cc1 [Example 8] | – | 97 | 100 | 100 | 80 | 100 | 100 | – | 4.18[a] | – | – | 73 | 100 | –
